# Results as given in patent publication EP2119770B1, “Production of alpha-oxyfunctionalized carbonyl compounds” (priority 2008, dated 2009).
# What was measured:
# Format in all cases: biochemical
# Gox0313 = biological target: T1, Gox0313 (Gluconobacter oxydans, UniProt Q5FU50); experiment: Enzyme activity assay (rate of NAD(P)H decrease at 340 nm), Gox0313; details: Tab. 6, Gox0313; substrate reduction, cofactor NADH; 10 mM substrate, pH 7.0, 30 °C
# T1 sequence (Q5FU50 1-343): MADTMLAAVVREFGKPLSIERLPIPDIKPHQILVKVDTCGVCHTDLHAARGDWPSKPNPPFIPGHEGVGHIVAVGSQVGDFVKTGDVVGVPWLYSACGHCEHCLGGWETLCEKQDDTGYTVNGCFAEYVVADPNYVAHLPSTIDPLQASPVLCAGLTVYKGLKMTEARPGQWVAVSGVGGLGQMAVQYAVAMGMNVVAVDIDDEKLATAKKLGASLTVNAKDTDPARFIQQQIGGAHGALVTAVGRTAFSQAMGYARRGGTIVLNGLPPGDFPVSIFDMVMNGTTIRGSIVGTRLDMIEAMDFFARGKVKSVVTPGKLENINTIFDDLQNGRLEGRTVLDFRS
# Description: (§1) Measurment of enzyme activity: NADPH-dependent alpha-ketocarbonyl reductases were assayed by a routine method used for NAD(P)-linked enzymes by recording the rate of decrease of NADPH at 340 nm (ε = 6.22 mM^-1 x cm^-1)) with substrates at 30 °C. The reaction mixture (1 ml) for reduction of alpha-ketocarbonyl substrates contained 10 mM substrate, 40 mM potassium phosphate buffer pH 7.0, 0.025 mM NAD(P)H , and the enzyme. Reactions were induced by addition of enzyme or substrate. One unit of enzyme activity was defined as the amount of enzyme catalyzing the conversion of 1 µmol of pyridine nucleotide per min at 30 °C.
# (§2) NADPH-dependent α-ketocarbonyl reductases were assayed by a routine method used for NAD(P)-linked enzymes by recording the rate of decrease of NADPH at 340 nm (ε = 6.22 mM^-1.cm^-1) with substrates at 30 °C. The reaction mixture (1 ml) for reduction of alpha-ketocarbonyl substrates contained 10 mM substrate, 40 mM potassium phosphate buffer pH 7.0, 0.025 mM NADPH , and the enzyme. Reactions were induced by addition of enzyme or substrate. One unit of enzyme activity was defined as the amount of enzyme catalyzing the conversion of 1 µmol of pyridine nucleotide per min at 30 °C.
# (§3) For each enzyme (Gox0313, Gox0502, Gox0644, Gox0646, Gox1615, Gox2107, and Gox2684 respectively), fresh enzyme preparations were used to validate the substrate spectrum and the kinetic activity. […] Purified NAD(P)-dependent oxidoreductases were assayed at 30 °C by a routine method used for NAD(P)-linked enzymes by recording the rate of decrease of NAD(P)H at 340 nm (ε = […]) with substrates capable of reduction reactions. The standard reaction mixture (1 ml) for the reduction reactions of substrates contained 10 mM substrate, 40 mM potassium phosphate buffer (K-phosphate buffer) pH 7.0, 0.05 mM NAD(P)H, and the enzyme unless otherwise noted. Reactions were induced by addition of enzyme or substrate. One unit of enzyme activity was defined as the amount of enzyme catalyzing the conversion of 1 µmol of pyridine nucleotide per min at 30 °C. Measurement of the protein content was performed by the method of Bradford in Anal. Biochem. 72:248-254 (1976). Table 3: Summary of enzymatic activities with α-diketones, α-ketoaldehydes and /or α-ketoesters
# Gox1615 = biological target: T2, Gox1615 (Gluconobacter oxydans, UniProt Q5FQJ0); experiment: Enzyme activity assay (rate of NAD(P)H decrease at 340 nm), Gox1615; details: Tab. 5, Gox1615; cofactor NADPH; 10 mM substrate, pH 7.0, 30 °C
# T2 sequence (Q5FQJ0 1-332): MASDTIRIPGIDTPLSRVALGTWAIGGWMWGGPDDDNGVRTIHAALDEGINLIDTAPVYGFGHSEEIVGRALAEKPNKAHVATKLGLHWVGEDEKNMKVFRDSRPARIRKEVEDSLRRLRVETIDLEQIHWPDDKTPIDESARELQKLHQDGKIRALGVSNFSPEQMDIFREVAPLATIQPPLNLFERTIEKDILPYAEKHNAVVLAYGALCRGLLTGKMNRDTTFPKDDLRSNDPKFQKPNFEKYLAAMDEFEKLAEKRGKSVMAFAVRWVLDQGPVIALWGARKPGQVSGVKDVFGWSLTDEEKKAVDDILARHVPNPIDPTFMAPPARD
# Description: as §1, §2, §3
# Gox0644 = Gox0644 (Gluconobacter oxydans, UniProt Q5FT75); experiment: Enzyme activity assay (rate of NAD(P)H decrease at 340 nm), Gox0644; details: for Specific Activity: Tab. 4, Gox0644, cofactor NADPH, 10 mM substrate, pH 7.0, 30 °C; for reduction by Gox0644 (result in words): NADPH
# Description: (§4) Reactions were induced by addition of enzyme or substrate. One unit of enzyme activity was defined as the amount of enzyme catalyzing the conversion of 1 µmol of pyridine nucleotide per min at 30 °C.
# as §4
# For each enzyme (Gox0313, Gox0502, Gox0644, Gox0646, Gox1615, Gox2107, and Gox2684 respectively), fresh enzyme preparations were used to validate the substrate spectrum and the kinetic activity. […] Reactions were induced by addition of enzyme or substrate. One unit of enzyme activity was defined as the amount of enzyme catalyzing the conversion of 1 µmol of pyridine nucleotide per min at 30 °C. […] Table 3: Summary of enzymatic activities with α-diketones, α-ketoaldehydes and /or α-ketoesters
# Gox2684 = biological target: T3, Gox2684 (Gluconobacter oxydans, UniProt Q5HXK5); experiment: Enzyme activity assay (rate of NAD(P)H decrease at 340 nm), Gox2684; details: Tab. 8, GOX2684; cofactor NADPH; 10 mM substrate, pH 7.0, 30 °C
# T3 sequence (Q5HXK5 1-357): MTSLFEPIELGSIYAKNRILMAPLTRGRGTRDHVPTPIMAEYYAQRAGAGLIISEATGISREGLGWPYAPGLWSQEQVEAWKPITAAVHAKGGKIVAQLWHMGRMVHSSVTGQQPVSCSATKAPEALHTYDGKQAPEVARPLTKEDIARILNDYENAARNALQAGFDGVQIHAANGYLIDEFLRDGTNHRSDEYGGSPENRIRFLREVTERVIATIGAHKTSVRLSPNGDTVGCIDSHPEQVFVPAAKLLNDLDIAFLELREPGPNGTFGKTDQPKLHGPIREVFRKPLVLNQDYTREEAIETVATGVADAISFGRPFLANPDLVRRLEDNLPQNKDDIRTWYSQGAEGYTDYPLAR
# Description: as §1, §2, §3
# Gox2107 = Gox2107 (Gluconobacter oxydans, UniProt Q5FP53); experiment: Enzyme activity assay (rate of NAD(P)H decrease at 340 nm), Gox2107; details: for Specific Activity: Tab. 7, Gox2107, cofactor NADPH, 10 mM substrate, pH 7.0, 30 °C
# Description: as §1, §2, §3
# Gox0502 = biological target: T4, Gox0502 (Gluconobacter oxydans, UniProt Q5FTL6); experiment: Enzyme activity assay (rate of NAD(P)H decrease at 340 nm), Gox0502; set-up: Strep-tag II (N); made in house; host or cells: E. coli BL21 or E. coli DH5α (pASK-IBA5); details: Tab. 7, Gox0502; cofactor NADPH; 10 mM substrate, pH 7.0, 30 °C
# T4 sequence (Q5FTL6 1-361): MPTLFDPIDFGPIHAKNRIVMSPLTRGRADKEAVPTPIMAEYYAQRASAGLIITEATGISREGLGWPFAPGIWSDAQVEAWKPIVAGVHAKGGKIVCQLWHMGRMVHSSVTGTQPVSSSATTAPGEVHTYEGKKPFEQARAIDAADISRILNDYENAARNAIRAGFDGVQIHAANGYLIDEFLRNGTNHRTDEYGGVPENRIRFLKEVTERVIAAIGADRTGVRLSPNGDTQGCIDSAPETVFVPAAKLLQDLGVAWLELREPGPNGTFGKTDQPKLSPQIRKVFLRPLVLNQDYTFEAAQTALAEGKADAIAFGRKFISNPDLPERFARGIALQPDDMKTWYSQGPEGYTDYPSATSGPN
# Description: as §1, §2, §3
Specific Activity (Gox0313) [U/mg],Specific Activity (Gox1615) [U/mg],Compound,other results
15.0,8.4,CCC=O [propionaldehyde],–
–,–,O=CC(=O)O [glyoxalate],Specific Activity (Gox0644): 1.2 U/mg
37.5,4.1,O=CCO [glycolaldehyde],–
–,–,"O=C1C=C(O)C(=O)c2ccccc21 [2-hydroxy-1,4-naphthoquinone]",Specific Activities (Gox2684): 0.7 U/mg; Specific Activity (Gox2107): 16.04 U/mg; Specific Activity (Gox0502): 0.75 U/mg
–,–,"CC1=CC(=O)c2ccccc2C1=O [2-methyl-1,4-naphthoquinone]",Specific Activities (Gox2684): 6.8 U/mg; Specific Activity (Gox2107): 124.1 U/mg; Specific Activity (Gox0502): 10 U/mg
8.6,15.5,CCCCCCC=O [heptanal],–
–,–,NC(=O)C1=CN([C@@H]2O[C@H](COP(=O)(O)OP(=O)(O)OC[C@H]3O[C@@H](n4cnc5c(N)ncnc54)[C@H](O)[C@@H]3O)[C@@H](O)[C@H]2O)C=CC1 [NADH],"decrease in activity with NADH (Gox2107; Gox2107, NADH compared with the preferred NADPH (data not shown)): 7.5 fold"
2.4,15.6,CCCCCCCCCCCC=O [dodecanal],–
18.8,10.5,CCCCCCCCCC=O [decanal],–
1.5,0.5,CC=CC(C)=O [3-penten-2-one],Specific Activities (Gox2684): 1.9 U/mg; Specific Activity (Gox2107): 1.9 U/mg; Specific Activity (Gox0502): 3.6 U/mg
–,–,O=C1C=CCCC1 [2-cyclohexene-1-one],Specific Activity (Gox2107): 3.3 U/mg; Specific Activity (Gox0502): 9.8 U/mg
10.5,–,CC(=O)C(C)O (centres unmarked) [acetoin],reduction by Gox0644 (result in words) (Gox0644): not reduced
6.0,10.3,CCCCCC=O [hexanal],–
–,–,CC(=O)CC(C)=O [acetylacetone],reduction by Gox0644 (result in words) (Gox0644): not reduced
–,–,C=CC(=O)CC [1-pentene-3-one],Specific Activity (Gox2107): 14.0 U/mg; Specific Activity (Gox0502): 6.1 U/mg
4.4,9.3,CCCCCCCCC=O [Nonal],–
–,–,C=C(C)[C@H]1CC=C(C)C(=O)C1 [(+)-Carvone],Specific Activity (Gox2107): < 0.1 U/mg; Specific Activity (Gox0502): 8.0 U/mg
1.5,5.3,CCCCCCCC=O [octanal],–
–,0.8,Cc1ccccc1C=O [o-toluylaldehyde],–
–,12,CC(C)CC=O [isovaleraldehyde],–
–,–,CC(C)=O [acetone],reduction by Gox0644 (result in words) (Gox0644): not reduced
–,–,N#CC1=C(C#N)C(=O)C(Cl)=C(Cl)C1=O [DDQ],Specific Activity (Gox2107): 26.5 U/mg; Specific Activity (Gox0502): < 0.1 U/mg
8.5,7.5,CCCCCCCCCCC=O [undecylaldehyde],–
8.9,15.1,CCCCC=O [valeraldehyde],–
–,13.4,CCCC(C)C=O (centres unmarked) [2-methylvaleraldehyde],–
–,0.3,CC(=O)C=CC(C)C [5-methyl-3-hexen-2-one],–

Compound,Specific Activity (Gox0313) [U/mg],Specific Activity (Gox1615) [U/mg],other results
glucose,4.7,–,–
mannose,9.7,–,–
Cc1cccc(C=O)c1 [m-toluylaldehyde],–,1.5,–
O=C(C(=O)c1ccccc1)c1ccccc1 [benzil],0.1,–,Specific Activity (Gox0644): 14.0 U/mg
O=CCc1ccccc1 [phenylacetaldehyde],–,6.5,–
CC=O [acetaldehyde],61.0,–,–
CCCC=O [butyraldehyde],8.5,14,–
O=CC=O [glyoxal],–,5,Specific Activity (Gox0644): 1.1 U/mg
O=Cc1ccccc1 [benzaldehyde],9.4,12.2,–
O=CCCCC=O [glutaraldehyde],–,13.5,–
O=CC=Cc1ccccc1 [cinnamaldehyde],7.0,–,Specific Activities (Gox2684): 0.4 U/mg
Cc1ccc(C=O)cc1 [p-toluylaldehyde],3.3,2.3,–
O=CCCc1ccccc1 [hydrocinnamaldehyde],32.1,–,Specific Activities (Gox2684): 1.9 U/mg
O=CC(O)CO (racemic) [DL-glyceraldehyde],1.2,19,–
